Converted amounts (≈) assume the structure as drawn. Where two headings read alike, the source gives them in different places.
Columns and labels:
Vibrio comma 904 = experiment: MIC, agar dilution method; format: cell-based
Xanthomonas citri = experiment: MIC, agar dilution method; format: cell-based
[1] = tested on: Brown rot (Sclerotinia cineria); experiment: Field test on brown rot of peach; format: in vivo; conditions: for Morbidity after 7 days since packaging: room temperature storage
Source text: Test on Brown rot (Sclerotinia cineria) of peach (field test):
Both the morbidity upon harvest and morbidity of the fruit packed in a cardboard box for storage at room temperature were investigated.

[2] = tested on: Staphylococcus aureus FDA 209 p
[3] = tested on: Bacillus subtilis PCI 219
Sclerotinia cinerea [4] = conditions: 72 hours
Botorytis cinerea = conditions: 48 hours
Sclerotinia cinerea [5] = conditions: 200 mcg/ml solution, 2 days at 27°C
Mice = conditions: for LD50: mice; for No abnormality (dose): mouse, in vivo
[6] = not given; remark: listed apart in the source
Sclerotinia rot fungus [7] = conditions: curative, 48 hours
crops = conditions: ordinary dosages
Gray mold fungus [8] = experiment: Curative test on gray mold of bean leaves; conditions: 48 hours
Gray mold fungus [9] = experiment: Preventive test on gray mold of bean leaves
Sclerotinia rot fungus [10] = experiment: Preventive test on sclerotinia rot of bean leaves
[11] = 50 ppm, sprayed twice, 7-day interval

SMILES: CC(N)C(=O)NC1COC(O)C(N)C1O (stereo not shown)
- minimum inhibitory concentration (MIC) (Vibrio comma 904; 24 hours): 12.5 µg/mL (≈ 57 µM)
- minimum inhibitory concentration (MIC) (Vibrio comma 904; 48 hours): 100 µg/mL (≈ 456 µM)
- minimum inhibitory concentration (MIC) (Xanthomonas citri; 48 hours): > 100 µg/mL
- minimum inhibitory concentration (MIC) (Xanthomonas citri; 72 hours): > 100 µg/mL
- Morbidity upon harvest [1, 11]: 0
- Morbidity after 7 days since packaging [1, 11]: 0
- minimum inhibitory concentration (MIC) ([2]; 24 hours): > 100 µg/mL
- minimum inhibitory concentration (MIC) ([2]; 48 hours): > 100 µg/mL
- minimum inhibitory concentration (MIC) (Sarcina lutea PCI 1001; 24 hours): 3.12 µg/mL (≈ 14.2 µM)
- minimum inhibitory concentration (MIC) (Sarcina lutea PCI 1001; 48 hours): 3.12 µg/mL (≈ 14.2 µM)
- minimum inhibitory concentration (MIC) ([3]; 24 hours): > 100 µg/mL
- minimum inhibitory concentration (MIC) ([3]; 48 hours): > 100 µg/mL
- minimum inhibitory concentration (MIC) (Mycobacterium ATCC 607; 24 hours): > 100 µg/mL
- minimum inhibitory concentration (MIC) (Mycobacterium ATCC 607; 48 hours): > 100 µg/mL
- minimum inhibitory concentration (MIC) (Escherichia coli NIHJ; 24 hours): 100 µg/mL (≈ 456 µM)
- minimum inhibitory concentration (MIC) (Escherichia coli NIHJ; 48 hours): > 100 µg/mL
- minimum inhibitory concentration (MIC) (Candida albicans; 48 hours): > 100 µg/mL
- minimum inhibitory concentration (MIC) (Candida albicans; 72 hours): > 100 µg/mL
- minimum inhibitory concentration (MIC) (Saccharomyces cerevisiae; 48 hours): > 100 µg/mL
- minimum inhibitory concentration (MIC) (Saccharomyces cerevisiae; 72 hours): > 100 µg/mL
- minimum inhibitory concentration (MIC) (Holmodendrum pedrosei; 48 hours): 25 µg/mL (≈ 114 µM)
- minimum inhibitory concentration (MIC) (Holmodendrum pedrosei; 72 hours): 25 µg/mL (≈ 114 µM)
- minimum inhibitory concentration (MIC) (Trichophyton rubrum; 48 hours): 100 µg/mL (≈ 456 µM)
- minimum inhibitory concentration (MIC) (Trichophyton rubrum; 72 hours): > 100 µg/mL
- minimum inhibitory concentration (MIC) (Ophiobolus miyabianus; 48 hours): 25 µg/mL (≈ 114 µM)
- minimum inhibitory concentration (MIC) (Ophiobolus miyabianus; 72 hours): 25 µg/mL (≈ 114 µM)
- minimum inhibitory concentration (MIC) (Aspergillus niger; 48 hours): > 100 µg/mL
- minimum inhibitory concentration (MIC) (Aspergillus niger; 72 hours): > 100 µg/mL
- minimum inhibitory concentration (MIC) (Xanthomonas oryzae; 48 hours): 50 µg/mL (≈ 228 µM)
- minimum inhibitory concentration (MIC) (Xanthomonas oryzae; 72 hours): 100 µg/mL (≈ 456 µM)
- minimum inhibitory concentration (MIC) (Alternaria japonica; 48 hours): 50 µg/mL (≈ 228 µM)
- minimum inhibitory concentration (MIC) (Alternaria japonica; 72 hours): 50 µg/mL (≈ 228 µM)
- minimum inhibitory concentration (MIC) (Alternaria kikuchiana; 48 hours): > 100 µg/mL
- minimum inhibitory concentration (MIC) (Alternaria kikuchiana; 72 hours): > 100 µg/mL
- minimum inhibitory concentration (MIC) (Sclerotinia cinerea [4]): 25 µg/mL (≈ 114 µM)
- minimum inhibitory concentration (MIC) (Sclerotinia sclerotiorum; 48 hours): 1.56 µg/mL (≈ 7.12 µM)
- minimum inhibitory concentration (MIC) (Sclerotinia sclerotiorum; 72 hours): 3.12 µg/mL (≈ 14.2 µM)
- minimum inhibitory concentration (MIC) (Botorytis fabae; 48 hours): 6.25 µg/mL (≈ 28.5 µM)
- minimum inhibitory concentration (MIC) (Botorytis fabae; 72 hours): 25 µg/mL (≈ 114 µM)
- minimum inhibitory concentration (MIC) (Botorytis cinerea): 6.25 µg/mL (≈ 28.5 µM)
- inhibition zone diameter (Sclerotinia cinerea [5]): about 35 mm
- LD50 (Mice; intravenous injection): 160 mg/kg
- LD50 (Mice; oral administration): 750 mg/kg
- No abnormality (dose) (Mice; iv): 125 mg/kg
- No abnormality (dose) (Mice; po): 500 mg/kg
- no trouble (concentration) (Young carp): 250 ppm
- Solubility in dimethyl sulfoxide (dimethyl sulfoxide): Soluble
- Solubility in ethanol (ethanol): sparingly soluble
- Solubility in methanol (methanol): Soluble
- stability on standing ([6]; allowed to stand for a long time): activity became lower and it coloured in yellow
- retention of activity ([6]; in an acidic solution): retains its activity
- stability ([6]; in the form of aqueous solution): very stable
- retention of activity ([6]; solution neutral to alkaline): activity is reduced
- Diameter of the disease spot after spraying (Sclerotinia rot fungus [7]; 50 ppm): 19.6 mm
- Disease spot inhibiting rate (Sclerotinia rot fungus [7]; 50 ppm): 62%
- Diameter of the disease spot after spraying (Sclerotinia rot fungus [7]; 100 ppm): 16.3 mm
- Disease spot inhibiting rate (Sclerotinia rot fungus [7]; 100 ppm): 76%
- phytotoxicity to crops (crops): does not give phytotoxicity to crops
- antibacterial action (various bacteria): only weak antibacterial action
- Diameter of the disease spot after spraying (Gray mold fungus [8]; 25 ppm): 19.3 mm
- Disease spot inhibiting rate (Gray mold fungus [8]; 25 ppm): 59%
- Diameter of the disease spot after spraying (Gray mold fungus [8]; 50 ppm): 17.0 mm
- Disease spot inhibiting rate (Gray mold fungus [8]; 50 ppm): 75%
- Diameter of the disease spot after spraying (Gray mold fungus [8]; 100 ppm): 16.3 mm
- Disease spot inhibiting rate (Gray mold fungus [8]; 100 ppm): 81%

SMILES: CC(N)C(=O)NC1COC(O)C(N)C1O.Cl (stereo not shown)
- Diameter of disease spot (Gray mold fungus [9]; 25 ppm): 23 mm
- Disease spot inhibiting rate (Gray mold fungus [9]; 25 ppm): 23%
- Diameter of disease spot (Gray mold fungus [9]; 50 ppm): 10 mm
- Disease spot inhibiting rate (Gray mold fungus [9]; 50 ppm): 67%
- Diameter of disease spot (Sclerotinia rot fungus [10]; 25 ppm): 10 mm
- Disease spot inhibiting rate (Sclerotinia rot fungus [10]; 25 ppm): 71%
- Diameter of disease spot (Sclerotinia rot fungus [10]; 50 ppm): 0 mm
- Disease spot inhibiting rate (Sclerotinia rot fungus [10]; 50 ppm): 100%

SMILES: CCCCNC(=O)n1c(NC(=O)OC)nc2ccccc21 [BENLATE, methyl-1-(butylcarbamoyl)-2-benzimidazole carbamate]
- Morbidity upon harvest ([1]; 50% product × 1000): 0.3
- Morbidity after 7 days since packaging ([1]; 50% product × 1000): 46.1

SMILES: CC1(C)OC(=O)N(c2cc(Cl)cc(Cl)c2)C1=O [Sclex, 3-(3,5-dichlorophenyl)-5,5-dimethyloxazolidinedione-2,4]
- Morbidity upon harvest ([1]; 20% product × 1500): 0.03
- Morbidity after 7 days since packaging ([1]; 20% product × 1500): 7.7
- Diameter of the disease spot after spraying (Gray mold fungus [8]; 20% product × 1000 (200 ppm)): 17.7 mm
- Disease spot inhibiting rate (Gray mold fungus [8]; 20% product × 1000 (200 ppm)): 61%

— patent publication US3956487A, “Novel antifungal antibiotic substance, and agricultural and horticultural fungicidal composition containing said substance” (Nihon Tokushu Noyaku Seizo Kabushiki Kaisha, priority 1974, dated 1976)
